Measured values reported in patent US8202836B2, “Modified PYY (3-36) peptides and their effects on feeding behavior” (Imperial Innovations Limited, priority 2005, dated 2012).

Legend:
Male C57BL/6 mice = assay: Food intake after intraperitoneal injection in overnight-fasted mice; assay type: in vivo; details: for reduction of food intake by 30 μg/kg versus a 100 μg/kg dose of PYY(3-36): dose response, peripheral injection after overnight fast
Method: (§1) Male C57BL/6 mice (20-30 g) were used for all mouse experiments. Male Wistar rats were used for the rat experiments. Mice or rats were individually housed in IVC cages. Animals were randomised by weight and fasted overnight for 16 hrs before intraperitoneal injection at 9 am. Food intake was measured at 1, 2, 4, 6 and 24 hours post injection. All peptide solutions were prepared freshly the morning of the study and injected as 100 μl. All statistics are calculated using the student's paired t-test.
Mice were injected with PYY(3-36) 100 μg/kg, allo_ILeu^3 PYY(3-36) 100 μg/kg, D_allo_ILeu^3 PYY(3-36) 100 μg/kg or saline (n=10/group) and food intake was measured at time intervals over 24 hours. In the Figure, significance versus saline is indicated by *=p<0.05, **=p<0.01, ***=p<0.001 paired t-test.
30 μg/kg or 100 μg/kg of PYY(3-36) or D_allo_ILeu^3 PYY(3-36) was injected after an overnight fast and food intake was measured at time intervals over a period of 24 hours. In the Figures, significance versus saline is indicated by *=p<0.05, **=p<0.01, ***=p<0.001 paired t-test.

Male Wistar rats = assay: Food intake after intraperitoneal injection in overnight-fasted rats; assay type: in vivo; details: for reduction of food intake by 30 μg/kg versus a 100 μg/kg dose of PYY(3-36): dose response, peripheral injection after overnight fast
Method: as §1
The experiment was identical to Example 2, except that Wistar rats were used instead of C57BL/6 mice. 30 μg/kg or 100 μg/kg of PYY(3-36) or D_allo_ILeu^3 PYY(3-36) was injected after an overnight fast and food intake was measured at time intervals over a period of 24 hours. In the Figures, significance versus saline is indicated by *=p<0.05, **=p<0.01, ***=p<0.001 paired t-test.

[1] = from 30 μg/kg vs 100 μg/kg comparison

## D-allo-Ile^3 PYY3-36 [D_allo_ILeu^3 PYY(3-36)]
Male C57BL/6 mice; 0-4 hours
  decrease of food intake over the total period 0-4 hours versus native PYY3-36: to a greater extent
Male C57BL/6 mice; 100 μg/kg each, 0-1 hr
  cumulative food intake compared to the PYY(3-36) injected group (p, paired t-test): 0.0138
Male C57BL/6 mice; 100 μg/kg each, 0-2 hr
  cumulative food intake compared to the PYY(3-36) injected group (p, paired t-test): 0.0063
Male C57BL/6 mice; 100 μg/kg each, 0-4 hr
  cumulative food intake compared to the PYY(3-36) injected group (p, paired t-test): 0.0003
Male C57BL/6 mice; 100 μg/kg each, 0-6 hr
  cumulative food intake compared to the PYY(3-36) injected group (p, paired t-test): 0.0024
Male C57BL/6 mice; 100 μg/kg each, 24 hr
  food intake over a 24 hr period compared to the PYY(3-36) 100 μg/kg group (p, paired t-test): 0.0554
Male C57BL/6 mice; 100 μg/kg intraperitoneal after overnight fast, n=10/group
  food intake compared with saline: significantly decreased food intake
Male C57BL/6 mice
  reduction of food intake by 30 μg/kg versus a 100 μg/kg dose of PYY(3-36): at least as powerful
Male C57BL/6 mice; listed as D-allo-Ile^3 PYY3-36
  reduction of food intake by 30 μg/kg versus a 100 μg/kg dose of PYY(3-36): same decrease in food intake
Male C57BL/6 mice; [1]
  superiority in efficacy over PYY(3-36): 3 fold
Male Wistar rats; 0-4 hours
  decrease of food intake over the total period 0-4 hours versus native PYY3-36: to a greater extent
Male Wistar rats
  reduction of food intake by 30 μg/kg versus a 100 μg/kg dose of PYY(3-36): at least as powerful
Male Wistar rats; listed as D-allo-Ile^3 PYY3-36
  reduction of food intake by 30 μg/kg versus a 100 μg/kg dose of PYY(3-36): same decrease in food intake
Male Wistar rats; [1]
  superiority in efficacy over PYY(3-36): 3 fold
Male Wistar rats; same quantity
  decrease in food intake versus the same quantity of normal human PYY3-36: greater decrease in food intake
